# In PMC12298351, “Novel 3,19-(N-Phenyl-3-(4-fluorophenyl)-pyrazole) Acetal of Andrographolide Promotes Cell Cycle Arrest and Apoptosis in MDA-MB-231 Breast Cancer Cells” (Pharmaceuticals, 2025):
# Assays:
# SNB-19 = assay type: cell-based; conditions: SNB-19, CNS
# M14 = assay type: cell-based; conditions: M14, Melanoma
# OVCAR-4 = assay type: cell-based; conditions: OVCAR-4, Ovarian
# TK-10 = assay type: cell-based; conditions: TK-10, Renal
# BT-549 = assay type: cell-based; conditions: BT-549, Breast
# K-562 = conditions: K-562, Leukemia
# COLO 205 = conditions: COLO 205, Colon
# HT29 = conditions: HT29, Colon
# SW-620 = conditions: SW-620, Colon
# SNB-75 = conditions: SNB-75, CNS
# U251 = conditions: U251, CNS
# SK-MEL-2 = conditions: SK-MEL-2, Melanoma
# UACC-257 = conditions: UACC-257, Melanoma
# UACC-62 = conditions: UACC-62, Melanoma
# OVCAR-8 = conditions: OVCAR-8, Ovarian
# NCI/ADR-RES = conditions: Ovarian
# A498 = conditions: A498, Renal
# UO-31 = conditions: UO-31, Renal
# PC-3 = conditions: PC-3, Prostate
# [1] = read-out: 50% lethal concentration (LC50)
# [2] = read-out: 50% lethal concentration (LC50), Leukemia
# [3] = read-out: 50% lethal concentration (LC50), Melanoma
# [4] = read-out: 50% lethal concentration (LC50), Breast
compound,measurement,setting,value
C=C1CCC2C3(C)COC(c4cn(-c5ccccc5)nc4-c4ccccc4)OC3CCC2(C)C1CC=C1C(=O)OCC1O (stereo not shown) [1a],GI50,SNB-19,1.85 µM
same,Total growth inhibition (TGI),SNB-19,3.78 µM
same,CC50,SNB-19; [1],7.73 µM
same,GI50,M14,1.81 µM
same,LC50 (50% lethal concentration),M14,7.23 µM
same,Total growth inhibition (TGI),M14,3.62 µM
same,GI50,OVCAR-4,2.31 µM
same,CC50,OVCAR-4; [1],> 100 µM
same,GI50,TK-10,1.78 µM
same,Total growth inhibition (TGI),TK-10,3.39 µM
same,CC50,TK-10; [1],6.46 µM
same,GI50,BT-549,1.64 µM
same,Total growth inhibition (TGI),BT-549,3.16 µM
same,CC50,BT-549; [1],6.1 µM
same,GI50,CCRF-CEM; Leukemia,0.59 µM
same,Total growth inhibition (TGI),CCRF-CEM; Leukemia,3.37 µM
same,CC50,CCRF-CEM; [2],> 100 µM
same,GI50,HL-60(TB); Leukemia,2.32 µM
same,Total growth inhibition (TGI),HL-60(TB); Leukemia,7.4 µM
same,CC50,HL-60(TB); [2],> 100 µM
same,GI50,K-562,2.97 µM
same,Total growth inhibition (TGI),K-562,> 100 µM
same,CC50,K-562; [1],> 100 µM
same,GI50,SR; Leukemia,3.79 µM
same,Total growth inhibition (TGI),SR; Leukemia,> 100 µM
same,CC50,SR; [2],> 100 µM
same,Total growth inhibition (TGI),A549/ATCC; Non-Small Cell Lung,7.11 µM
same,GI50,A549/ATCC; Non-Small-Cell Lung,2.49 µM
same,CC50,"A549/ATCC; read-out: 50% lethal concentration (LC50), Non-Small Cell Lung",> 100 µM
same,Total growth inhibition (TGI),"HOP-62; HOP-62, Non-Small Cell Lung",3.84 µM
same,GI50,"HOP-62; HOP-62, Non-Small-Cell Lung",1.87 µM
same,CC50,"HOP-62; read-out: 50% lethal concentration (LC50), HOP-62, Non-Small Cell Lung",7.89 µM
same,Total growth inhibition (TGI),"HOP-92; HOP-92, Non-Small Cell Lung",2.99 µM
same,GI50,"HOP-92; HOP-92, Non-Small-Cell Lung",1.53 µM
same,CC50,"HOP-92; read-out: 50% lethal concentration (LC50), HOP-92, Non-Small Cell Lung",5.83 µM
same,Total growth inhibition (TGI),"NCI-H23; NCI-H23, Non-Small Cell Lung",3.08 µM
same,GI50,"NCI-H23; NCI-H23, Non-Small-Cell Lung",1.69 µM
same,CC50,"NCI-H23; read-out: 50% lethal concentration (LC50), NCI-H23, Non-Small Cell Lung",5.64 µM
same,Total growth inhibition (TGI),"NCI-H522; NCI-H522, Non-Small Cell Lung",3.86 µM
same,GI50,"NCI-H522; NCI-H522, Non-Small-Cell Lung",1.9 µM
same,CC50,"NCI-H522; read-out: 50% lethal concentration (LC50), NCI-H522, Non-Small Cell Lung",7.85 µM
same,GI50,COLO 205,2.01 µM
same,Total growth inhibition (TGI),COLO 205,3.57 µM
same,CC50,COLO 205; [1],6.31 µM
same,GI50,HT29,2.37 µM
same,Total growth inhibition (TGI),HT29,6.77 µM
same,CC50,HT29; [1],> 100 µM
same,GI50,SW-620,1.73 µM
same,Total growth inhibition (TGI),SW-620,3.68 µM
same,CC50,SW-620; [1],7.82 µM
same,GI50,SNB-75,1.36 µM
same,Total growth inhibition (TGI),SNB-75,3.9 µM
same,CC50,SNB-75; [1],26.5 µM
same,GI50,U251,1.84 µM
same,Total growth inhibition (TGI),U251,3.71 µM
same,CC50,U251; [1],7.48 µM
same,GI50,LOX IMVI; Melanoma,1.54 µM
same,Total growth inhibition (TGI),LOX IMVI; Melanoma,3 µM
same,CC50,LOX IMVI; [3],5.85 µM
same,GI50,MALME-3M; Melanoma,1.73 µM
same,Total growth inhibition (TGI),MALME-3M; Melanoma,3.18 µM
same,CC50,MALME-3M; [3],5.88 µM
same,GI50,SK-MEL-2,1.74 µM
same,Total growth inhibition (TGI),SK-MEL-2,3.54 µM
same,CC50,SK-MEL-2; [1],7.2 µM
same,GI50,UACC-257,1.9 µM
same,Total growth inhibition (TGI),UACC-257,3.8 µM
same,CC50,UACC-257; [1],7.62 µM
same,GI50,UACC-62,1.65 µM
same,Total growth inhibition (TGI),UACC-62,3.2 µM
same,CC50,UACC-62; [1],6.22 µM
same,GI50,OVCAR-8,1.81 µM
same,Total growth inhibition (TGI),OVCAR-8,4.02 µM
same,CC50,OVCAR-8; [1],> 100 µM
same,GI50,NCI/ADR-RES,4.75 µM
same,Total growth inhibition (TGI),NCI/ADR-RES,5.31 µM
same,GI50,A498,2.34 µM
same,Total growth inhibition (TGI),A498,6.47 µM
same,CC50,A498; [1],27.7 µM
same,GI50,SN12C; Renal,1.87 µM
same,Total growth inhibition (TGI),SN12C; Renal,3.96 µM
same,CC50,"SN12C; read-out: 50% lethal concentration (LC50), Renal",8.37 µM
same,GI50,UO-31,1.35 µM
same,Total growth inhibition (TGI),UO-31,2.69 µM
same,CC50,UO-31; [1],5.36 µM
same,GI50,PC-3,1.95 µM
same,Total growth inhibition (TGI),PC-3,4.7 µM
same,CC50,PC-3; [1],66.9 µM
same,GI50,HS 578T; Breast,2.31 µM
same,Total growth inhibition (TGI),HS 578T; Breast,6.54 µM
same,CC50,HS 578T; [4],> 100 µM
same,GI50,T-47D; Breast,1.42 µM
same,Total growth inhibition (TGI),T-47D; Breast,3.47 µM
same,CC50,T-47D; [4],8.47 µM
